Where a SMILES comes first, the peptide text is derived from it.
Tests used:
[1] = molecular target: T1, recombinant DPY-31 from T. circumcincta (Teladorsagia circumcincta, UniProt A0A0C5PRQ1); experiment: rDPY-31 absorbance assay (astacin assay, Suc-Ala-Ala-Ala-pNA substrate); assay type: biochemical; details: T. circumcincta enzyme; species not given; read-out: IC50 rDPY-31 (in vitro absorbance assay)
T1 construct: made in house; host or cells: E. coli (inferred from the codon optimisation and the pET28a(+) vector)
Source text: (§1) In total, 104 compounds were screened against recombinant DPY-31 from both the human parasite B. malayi as well as the sheep GI parasite T. circumcincta using an absorbance assay.[(i)], [10] […] This may be due to the extremely slow binding kinetics of these inhibitors.[17]
(§2) The 684bp and 675bp sequences encoding the astacin domains of T. circumcincta DPY-31, and B. malayi DPY-31, were codon-optimised for E. coli by GeneArt (Life Technologies), and cloned into vector pMA-T. These plasmids were then inserted into the pET28a(+) vector, expression of the encoded proteins was induced and the resulting proteins were purified following the methods described previously. Zinc metalloprotease assays were performed to determine the activity of the recombinant DPY-31 proteins from these nematode species, using the previously described method.^18
(§3) An astacin assay was performed to determine the inhibitory activity of all compounds against recombinant DPY-31 from the two nematode species. Briefly, 150 µg/ml of recombinant enzyme was incubated with 0.1 mM ZnCl2 and various concentrations (5 µM to 400 µM) of compound, and the volume was made up to a total of 100 µl with 50 mM NaPO4, pH 8.0 buffer. […] Absorbance was measured on a plate reader at 405 nm. […]

[2] = test system: crayfish astacin; set-up: method as in PMID 8756323; details: cited from earlier work
[3] = molecular target: T2, recombinant DPY-31 from B. malayi (Brugia malayi, UniProt A8Q2D1); experiment: rDPY-31 absorbance assay (astacin assay, Suc-Ala-Ala-Ala-pNA substrate); assay type: biochemical; details: ±standard error; 3 h pre-incubation, 37 °C, pH 8.0; read-out: pIC50 rDPY-31 B. malayi (converted)
T2 construct: made in house; host or cells: E. coli (inferred from the codon optimisation and the pET28a(+) vector)
Source text: as §1, §2, §3

[4] = test system: T. circumcincta dpy-31 transgenically-rescued C. elegans dpy-31 mutant TP224; experiment: Phenotypic screening against transgenic rescue strain TP224; assay type: in vivo, Caenorhabditis elegans; details: for phenotype induced: TP224, 96 well plate, 3 days, 50 μM to 2 mM
Experimental: (§4) These compounds were tested against three strains: free-living wild-type C. elegans N2, the T. circumcincta dpy-31 transgenically-rescued C. elegans dpy-31 mutant TP224, and parasitic T. circumcincta (Fig. 4). Phenotypes were evaluated in 96 well plate format over the course of 3 days using concentrations ranging from 50 μM to 2 mM. […] The similarity of these effects between wild-type C. elegans, the mutant strain, and T. circumcincta reinforces the conserved nature of this metalloprotease.
Compounds 8 and 9 were screened against C. elegans N2 or TP224 L4s at 100, 250 and 1000 µM, using 96-well plates. A single L4 was placed into each of the wells in a total volume of 100 µl, made up of compound, M9 buffer and 5 µl 10x concentrated OP50. The compound concentrations were tested in duplicate for each compound. The plates were sealed with gas-permeable covers and incubated at 20 °C for 3 days, with the effects on the phenotypes recorded daily. Representative worm images were taken as described in section 5.1.

[5] = test system: parasitic T. circumcincta; experiment: Phenotypic screening against T. circumcincta L1s and L3s; assay type: in vivo, Teladorsagia circumcincta; details: for phenotype induced: T. circumcincta, 96 well plate, 50 μM to 2 mM
Experimental: as §4
T. circumcincta L1s or exsheathed L3s were incubated with compounds 8 and 9 at 100, 500 and 1000 µM. 10-20 L1s were incubated per well of a 96-well plate, each well containing compound, 5 µl 10x concentrated OP50 and EBSS (Earle’s Balanced Salt Solution; Life Technologies) to 100 µl, and 10-20 L3s were incubated per well of a 96-well plate, each well containing compound and EBSS to 100 µl. Each compound was tested in duplicate for all concentrations. The plates were sealed with gas-permeable covers and incubated at 26 °C (L1s) or 40 °C (L3s) at 100 rpm for 7-8 days and any observations on development were recorded. Representative worm images were taken as described in section 5.1.

[6] = test system: free-living wild-type C. elegans N2; experiment: Phenotypic screening against C. elegans N2 larvae; assay type: in vivo, Caenorhabditis elegans; details: for phenotype induced: C. elegans N2, 96 well plate, 3 days, 50 μM to 2 mM
Experimental: as §4
Compounds 8 and 9 were screened against C. elegans N2 L4s using 96-well plates. A single L4 was placed into each well in a total volume of 100 µL, made up of compound, M9 buffer and 5 µl 10x concentrated food (E. coli strain OP50), and incubated at 20 °C for 3 days, with the effects on the phenotypes recorded daily. The compounds were screened in duplicate at concentrations ranging from 50 µM to 2 mM. Actinonin (100 µM) was used as a positive control.^18 Representative offspring were transferred onto 2% agarose/0.01% azide pads on slides and viewed with a Zeiss Axioskop2 microscope. Images were taken using an AxioCam camera and Axiovision software.

T2 sequence (A8Q2D1 211-410): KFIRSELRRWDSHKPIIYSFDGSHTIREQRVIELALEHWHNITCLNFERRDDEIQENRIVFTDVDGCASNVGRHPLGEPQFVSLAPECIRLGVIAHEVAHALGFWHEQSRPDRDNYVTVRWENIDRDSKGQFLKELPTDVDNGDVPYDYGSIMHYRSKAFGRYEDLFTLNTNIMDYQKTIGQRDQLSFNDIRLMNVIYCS
T1 sequence (A0A0C5PRQ1 151-614): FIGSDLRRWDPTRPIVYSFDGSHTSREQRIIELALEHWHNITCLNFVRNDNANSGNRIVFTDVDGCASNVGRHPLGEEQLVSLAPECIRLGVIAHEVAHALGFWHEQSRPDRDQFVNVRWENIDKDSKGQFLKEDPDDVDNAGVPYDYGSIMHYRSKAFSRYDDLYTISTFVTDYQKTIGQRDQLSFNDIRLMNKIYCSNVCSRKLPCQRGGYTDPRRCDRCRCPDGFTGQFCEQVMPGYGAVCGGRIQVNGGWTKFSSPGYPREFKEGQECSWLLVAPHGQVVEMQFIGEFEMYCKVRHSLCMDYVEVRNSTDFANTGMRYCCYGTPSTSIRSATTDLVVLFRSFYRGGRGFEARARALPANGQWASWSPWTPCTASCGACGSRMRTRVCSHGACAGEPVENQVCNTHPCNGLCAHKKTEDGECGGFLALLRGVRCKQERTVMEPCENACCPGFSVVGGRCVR

COC(=O)C1CCCN1C(=O)C(C)CP(=O)(O)C(Cc1ccccc1)NC(=O)C(CCCCN)NC(=O)C1CCCN1C(=O)OCc1ccccc1 (stereo not drawn) [Compound 1]
IC50 [1]: > 500 µM | inhibition of crayfish astacin [2]: mid-μM inhibitor

CNC(=O)[C@@H](NC(=O)[C@H](CC(C)C)[C@H](O)C(=O)NO)C(C)(C)C [Compound 3, marimastat]
IC50 [3]: 200 µM

C[C@H](NC(=O)[C@@H]1CCCN1C(=O)OC(C)(C)C)C(=O)N[C@@H](Cc1ccccc1)C(=O)NO [Compound 8] (HELM PEPTIDE1{[CC(C)(C)OC(=O)[*:2]].P.A.F.[ON[*:1]]}$$$$V2.0)
phenotype observed (Figure 4d) ([4]; L1 TP224, 100 μM): Dpy L1 phenotype | phenotype induced [4]: induce the Dpy phenotype | phenotype induced [5]: induce the Dpy phenotype | phenotype induced [6]: induce the Dpy phenotype | phenotype observed (Figure 4b) ([6]; L1 C. elegans (N2), 50 μM): Dpy phenotype

C[C@H](NC(=O)[C@@H]1CCCN1C(=O)OCC1c2ccccc2-c2ccccc21)C(=O)N[C@@H](Cc1ccccc1)C(=O)NO [Compound 9] (HELM PEPTIDE1{[O=C(OCC1c2ccccc2-c2ccccc21)[*:2]].P.A.F.[ON[*:1]]}$$$$V2.0)
phenotype induced [4]: induce the Dpy phenotype | phenotype observed (Figure 4f) ([5]; T. circumcincta L3, 500 μM): Dpy phenotype | phenotype induced [5]: induce the Dpy phenotype | phenotype induced [6]: induce the Dpy phenotype

From article PMC4658336, “Identification and activity of inhibitors of the essential nematode-specific metalloprotease DPY-31” (Bioorganic & Medicinal Chemistry Letters, 2015)
